Assay results as given in US5498405A, “Indole alkaloids useful as UV protective and anti-inflammatory agents” (The Regents of the University of California, priority 1995, dated 1996).

Columns and labels:
myeloperoxidase (MPO) = experiment: Myeloperoxidase (MPO) enzyme assay in ear biopsies from treated mice; format: in vivo, mouse; conditions: pooled ear bores
Source text: Myeloperoxidase (MPO) Enzyme Assay
The neutrophil-specific marker released from primary granules, myeloperoxidase (MPO), in ear biopsies from treated and untreated mouse ears was extracted and quantitated according to a modified method of Bradley, P. O., Priebat, D. A., Christensen, R. D. and Rothstein, G., "Measurement of cutaneous inflammation estimation of neutrophil content with an enzyme marker," J. Invest Dermatology 78: 206-209, 1982. This enzyme is indicative of the extravasation of pro-inflammation neutrophils from blood into the skin. Ear bores from each treatment group from mouse ear edema assays were pooled and homogenized in 80 mM sodium phosphate buffer (pH 5.4) containing 0.5% hexadecyltrimethylammonium bromide in a siliconized glass test tube for 1 min. at 0° C. using a Brinkman Polytron. The mixtures were centrifuged at 10,000×g at 4° C. for 30 min. Samples (10 μl) from each group were then assayed in a 96-well microtiter plate. The assay was initiated by adding 250 μl of o-dianisi-dine/phosphate reagent (0.28 mg of dianisidine added to 1 ml of 50 mM sodium phosphate containing […]) to each well. After a 30 minutes incubation of 37° C., the plates were read at 450 nm on a Molecular Devices microplate reader. Diluted control biopsies were utilized to develop a standard curve. Optical density values from drug-treated groups were compared to control groups to determine % of control values of enzyme activity.

[1] = tested on: mouse ear edema (Phorbol 12-myristate 13-acetate, PMA); experiment: Inhibition of PMA-induced inflammation (edema) of the mouse ear; format: in vivo; conditions: PMA 2 μg/ear, 3 hours, 20 minutes
Experimental: Inhibition of Inflammation (Edema) of the Mouse Ear
Compounds 1 and 1R were topically applied in acetone to the inside pinnae of the ears of mice in a solution containing the edema-causing irritant, Phorbol 12-myristate 13-acetate (PMA). […] After 3 hours, 20 minutes incubation, the mice were sacrificed, the ears removed and bores taken and weighed. Edema was measured by subtracting the weight of the right ear (acetone control) from the weight of the left ear (treated). Results are recorded as % decrease (inhibition)or % increase (potentiation) in edema relative to the PMA control group edema.

Solubility = format: physicochemical; conditions: after mild reduction (e.g., ascorbic acid)

O=C1C(=Cc2ccc(O)cc2)c2[nH]c3ccccc3c2C1=C1C(=O)C(=Cc2ccc(O)cc2)C2=Nc3ccccc3C21 (centres unmarked) [Compound 1R]
MPO Enzyme Activity, % of Control (myeloperoxidase (MPO); dose 1 ug/ear): 81% | MPO Enzyme Activity, % of Control (myeloperoxidase (MPO); dose 5 ug/ear): 82% | MPO Enzyme Activity, % of Control (myeloperoxidase (MPO); dose 10 ug/ear): 32% | MPO Enzyme Activity, % of Control (myeloperoxidase (MPO); dose 100 ug/ear): 10% | Dose Response Inhibition of Mouse Ear Edema ([1]; topical dose 1 ug/ear): 22% | Dose Response Inhibition of Mouse Ear Edema ([1]; topical dose 5 ug/ear): 17% | Dose Response Inhibition of Mouse Ear Edema ([1]; topical dose 10 ug/ear): 49% | Dose Response Inhibition of Mouse Ear Edema ([1]; topical dose 50 ug/ear): 94% | Inhibition of Mouse Ear Edema ([1]; topical dose 50 ug/ml (so in the source)): 94% | Dose Response Inhibition of Mouse Ear Edema ([1]; topical dose 100 ug/ear): 95% | Solubility properties relative to Compound 1 (Solubility): slightly improved solubility properties
